The subject of one data set is TK-10. Kind of data set: Antiproliferative activity against human TK-10 cells assessed as cell growth inhibition incubated for 72 hrs by alamar blue dye based assay. Type of data set: functional. Background: Alamar Blue is a resazurin reagent that responds to reducing activity.
In another data set the test system is SF-295. Kind of data set: Antiproliferative activity against human SF-295 cells assessed as cell growth inhibition incubated for 72 hrs by alamar blue dye based assay. Type of data set: functional.
A further data set relates to MOLT-4. Kind of data set: Antiproliferative activity against human MOLT-4 cells assessed as cell growth inhibition incubated for 72 hrs by alamar blue dye based assay. Type of data set: functional.
A further data set addresses Histone deacetylase 8 (Homo sapiens, UniProt Q9BY41). Kind of data set: Inhibition of HDAC8 (unknown origin) expressed in baculovirus infected in Sf9 cells using RHKKAc as substrate preincubated for 5 to 10 mins followed by substrate addition measured after 2 hrs by fluorescence based assay.
Data set [1] in a line: Cmax in Sprague-Dawley rat at 3 mg/kg, po by LC-MS/MS analysis. Type of data set: ADME, organism-based. As to conditions: in vivo.
Another data set has as its system A498. Kind of data set: Antiproliferative activity against human A498 cells assessed as cell growth inhibition incubated for 72 hrs by alamar blue dye based assay. Type of data set: functional.
The next data set has as its system CAKI-1. Kind of data set: Antiproliferative activity against human CAKI-1 cells assessed as cell growth inhibition incubated for 72 hrs by alamar blue dye based assay. The data set is classed as functional.
For data set [2], the target named is T1, Protein deacetylase HDAC6 (Homo sapiens) (UniProt Q9UBN7).
T1 sequence (whole entry): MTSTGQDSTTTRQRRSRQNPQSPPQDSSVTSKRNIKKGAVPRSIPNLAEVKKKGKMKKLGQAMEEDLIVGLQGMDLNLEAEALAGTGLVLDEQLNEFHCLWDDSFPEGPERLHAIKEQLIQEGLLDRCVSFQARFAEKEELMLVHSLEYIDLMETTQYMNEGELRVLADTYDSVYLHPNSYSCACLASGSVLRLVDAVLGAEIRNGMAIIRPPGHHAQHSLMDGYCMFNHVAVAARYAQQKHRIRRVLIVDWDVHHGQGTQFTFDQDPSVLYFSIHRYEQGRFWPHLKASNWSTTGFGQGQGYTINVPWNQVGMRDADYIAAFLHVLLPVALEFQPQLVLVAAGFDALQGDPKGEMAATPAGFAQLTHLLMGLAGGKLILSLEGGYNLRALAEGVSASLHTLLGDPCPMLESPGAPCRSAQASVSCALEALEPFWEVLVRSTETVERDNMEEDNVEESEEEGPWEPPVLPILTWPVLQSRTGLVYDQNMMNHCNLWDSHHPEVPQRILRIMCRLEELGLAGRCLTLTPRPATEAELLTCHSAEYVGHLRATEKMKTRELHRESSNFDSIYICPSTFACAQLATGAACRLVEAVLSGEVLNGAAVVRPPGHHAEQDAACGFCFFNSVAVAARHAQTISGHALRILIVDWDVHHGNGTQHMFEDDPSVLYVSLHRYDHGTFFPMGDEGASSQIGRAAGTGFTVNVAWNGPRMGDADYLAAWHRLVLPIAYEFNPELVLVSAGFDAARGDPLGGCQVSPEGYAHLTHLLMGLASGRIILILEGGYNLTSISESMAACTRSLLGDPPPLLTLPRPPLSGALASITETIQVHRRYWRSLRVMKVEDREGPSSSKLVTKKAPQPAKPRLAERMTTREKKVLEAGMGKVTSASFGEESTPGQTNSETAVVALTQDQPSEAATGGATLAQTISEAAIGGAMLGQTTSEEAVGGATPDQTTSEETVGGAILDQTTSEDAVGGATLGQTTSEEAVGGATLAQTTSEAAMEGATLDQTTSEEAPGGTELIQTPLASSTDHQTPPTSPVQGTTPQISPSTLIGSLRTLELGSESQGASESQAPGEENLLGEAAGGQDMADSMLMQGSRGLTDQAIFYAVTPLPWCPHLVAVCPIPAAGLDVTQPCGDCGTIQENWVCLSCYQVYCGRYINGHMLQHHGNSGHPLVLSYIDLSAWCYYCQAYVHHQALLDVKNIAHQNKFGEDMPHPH
Kind of data set: Inhibition of HDAC6 in human RPMI-8226 cells assessed as increase in histone H3 acetylation at 1 to 10 uM incubated for 24 hrs by Western blot analysis. The data set is classed as cell-based. The note with it: dose 1-10 µM.

Data set [3] is described as follows: Half life in Sprague-Dawley rat at 0.2 mg/kg, iv by LC-MS/MS analysis. As to conditions: in vivo. The data set is classed as ADME, organism-based.
Data set [4] is described as follows: Clearance in Sprague-Dawley rat at 0.2 mg/kg, iv by LC-MS/MS analysis. The note with it: in vivo. The data set is classed as ADME, organism-based.
The subject of a further data set is SNB-75. Kind of data set: Antiproliferative activity against human SNB-75 cells assessed as cell growth inhibition incubated for 72 hrs by alamar blue dye based assay. Type of data set: functional.
The test system of the next data set is U-251. Kind of data set: Antiproliferative activity against human U-251 cells assessed as cell growth inhibition incubated for 72 hrs by alamar blue dye based assay. The data set is classed as functional.
The next data set relates to KM12. Kind of data set: Antiproliferative activity against human KM12 cells assessed as cell growth inhibition incubated for 72 hrs by alamar blue dye based assay. The data set is classed as functional.
The subject of another data set is Malme-3M. Kind of data set: Antiproliferative activity against human Malme-3M cells assessed as cell growth inhibition incubated for 72 hrs by alamar blue dye based assay. Type of data set: functional.
Data set [5] addresses T2, Class 1 histone deacetylase (Homo sapiens) (UniProt Q13547+O15379+Q92769+Q9BY41). Kind of data set: Inhibition of class 1 HDAC in human RPMI-8226 cells assessed as increase in alpha-tubulin acetylation at 1 to 10 uM incubated for 24 hrs by Western blot analysis. The note with it: dose 1-10 µM. The data set is classed as cell-based. (In western blotting, separated proteins are transferred to a membrane and probed.)

Another data set relates to BT-549. Kind of data set: Antiproliferative activity against human BT-549 cells assessed as cell growth inhibition incubated for 72 hrs by alamar blue dye based assay. Type of data set: functional.
A further data set addresses Histone deacetylase 9 (Homo sapiens, UniProt Q9UKV0). Kind of data set: Inhibition of HDAC9 (unknown origin) expressed in baculovirus infected in Sf9 cells using RHKKAc as substrate preincubated for 5 to 10 mins followed by substrate addition measured after 2 hrs by fluorescence based assay.
A further data set addresses Histone deacetylase 2 (Homo sapiens, UniProt Q92769). The data set is classed as cell-based, Sf9.
Data set [6] in a line: Tmax in Sprague-Dawley rat at 3 mg/kg, po by LC-MS/MS analysis. The data set is classed as ADME, organism-based. As to conditions: in vivo.
The target of a further data set is Histone deacetylase 1 (Homo sapiens, UniProt Q13547). Kind of data set: Inhibition of HDAC1 (unknown origin) expressed in baculovirus infected in Sf9 cells using RHKKAc as substrate preincubated for 5 to 10 mins followed by substrate addition measured after 2 hrs by fluorescence based assay.
In the next data set the test system is SNB-19. Kind of data set: Antiproliferative activity against human SNB-19 cells assessed as cell growth inhibition incubated for 72 hrs by alamar blue dye based assay. The data set is classed as functional.
The subject of a further data set is HT-29. Kind of data set: Antiproliferative activity against human HT-29 cells assessed as cell growth inhibition incubated for 72 hrs by alamar blue dye based assay. The data set is classed as functional.
The nature of data set [7]: Volume of distribution at steady state in Sprague-Dawley rat at 0.2 mg/kg, iv by LC-MS/MS analysis. Type of data set: ADME, organism-based. As to conditions: in vivo, read-out: Vdss.
Another data set deals with PC-3. Kind of data set: Antiproliferative activity against human PC-3 cells assessed as cell growth inhibition incubated for 72 hrs by alamar blue dye based assay. The data set is classed as functional.
The target in data set [8] is T2, Class 1 histone deacetylase (Homo sapiens). Kind of data set: Inhibition of class 1 HDAC in human RPMI-8226 cells assessed as increase in histone H3 acetylation at 1 to 10 uM incubated for 24 hrs by Western blot analysis. The data set is classed as cell-based. As to conditions: dose 1-10 µM.

Calls of active or inactive are those of the source.

T2 sequence (O15379 whole entry, looked up): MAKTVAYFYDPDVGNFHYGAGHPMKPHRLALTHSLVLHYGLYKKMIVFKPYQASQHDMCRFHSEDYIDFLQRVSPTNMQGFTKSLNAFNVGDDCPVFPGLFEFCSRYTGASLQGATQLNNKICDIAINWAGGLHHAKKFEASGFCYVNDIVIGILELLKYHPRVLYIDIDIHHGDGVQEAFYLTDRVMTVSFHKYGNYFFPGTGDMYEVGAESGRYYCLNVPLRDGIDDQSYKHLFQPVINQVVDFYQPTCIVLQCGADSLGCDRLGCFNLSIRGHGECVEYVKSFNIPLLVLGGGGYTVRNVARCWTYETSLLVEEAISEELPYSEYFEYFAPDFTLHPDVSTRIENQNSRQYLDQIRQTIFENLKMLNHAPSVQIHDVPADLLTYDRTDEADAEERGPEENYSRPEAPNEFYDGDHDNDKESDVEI
T2 sequence (Q13547 whole entry, looked up): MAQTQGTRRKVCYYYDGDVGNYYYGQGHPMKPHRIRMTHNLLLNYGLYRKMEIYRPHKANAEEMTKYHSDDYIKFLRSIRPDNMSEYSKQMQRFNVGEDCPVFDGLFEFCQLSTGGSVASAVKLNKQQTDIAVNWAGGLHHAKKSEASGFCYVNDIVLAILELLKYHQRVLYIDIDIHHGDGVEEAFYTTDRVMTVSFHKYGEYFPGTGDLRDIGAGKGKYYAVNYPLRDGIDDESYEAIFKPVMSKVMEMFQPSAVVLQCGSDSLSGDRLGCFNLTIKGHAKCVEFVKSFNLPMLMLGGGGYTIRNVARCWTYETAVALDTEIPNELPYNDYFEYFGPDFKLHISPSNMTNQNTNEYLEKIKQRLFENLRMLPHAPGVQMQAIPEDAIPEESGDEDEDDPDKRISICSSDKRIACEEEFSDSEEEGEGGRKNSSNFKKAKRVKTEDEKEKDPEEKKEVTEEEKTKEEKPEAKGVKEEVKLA
T2 sequence (Q92769 whole entry, looked up): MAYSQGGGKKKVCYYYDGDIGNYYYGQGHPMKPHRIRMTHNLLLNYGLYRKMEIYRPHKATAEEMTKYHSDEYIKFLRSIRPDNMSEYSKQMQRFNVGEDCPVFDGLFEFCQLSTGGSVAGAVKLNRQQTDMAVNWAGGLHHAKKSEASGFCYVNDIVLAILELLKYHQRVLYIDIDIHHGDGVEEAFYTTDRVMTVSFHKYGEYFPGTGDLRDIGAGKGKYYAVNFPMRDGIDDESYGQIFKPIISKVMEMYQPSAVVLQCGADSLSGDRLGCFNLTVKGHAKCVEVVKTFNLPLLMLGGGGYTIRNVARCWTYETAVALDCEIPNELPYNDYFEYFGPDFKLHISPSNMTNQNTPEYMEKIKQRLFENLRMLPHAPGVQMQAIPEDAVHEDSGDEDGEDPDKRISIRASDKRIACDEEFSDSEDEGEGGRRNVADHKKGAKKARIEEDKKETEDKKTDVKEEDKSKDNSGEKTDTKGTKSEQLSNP
T2 sequence (Q9BY41 whole entry, looked up): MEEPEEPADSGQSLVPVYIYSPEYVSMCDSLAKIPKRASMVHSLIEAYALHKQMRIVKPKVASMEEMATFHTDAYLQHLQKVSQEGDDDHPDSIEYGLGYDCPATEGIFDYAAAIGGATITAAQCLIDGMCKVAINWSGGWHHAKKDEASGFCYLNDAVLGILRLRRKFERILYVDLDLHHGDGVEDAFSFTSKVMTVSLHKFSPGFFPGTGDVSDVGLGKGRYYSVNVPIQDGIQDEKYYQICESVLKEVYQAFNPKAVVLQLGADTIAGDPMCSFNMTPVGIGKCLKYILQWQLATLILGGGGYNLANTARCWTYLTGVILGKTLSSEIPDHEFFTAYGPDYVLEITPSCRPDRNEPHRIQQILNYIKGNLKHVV
Sequence of Histone deacetylase 1 (Q13547 whole entry): as the sequence (Q13547 whole entry, looked up) above
Sequence of Histone deacetylase 2 (Q92769 whole entry): as the sequence (Q92769 whole entry, looked up) above
Sequence of Histone deacetylase 8 (Q9BY41 whole entry): as the sequence (Q9BY41 whole entry, looked up) above
Sequence of Histone deacetylase 9 (Q9UKV0 whole entry): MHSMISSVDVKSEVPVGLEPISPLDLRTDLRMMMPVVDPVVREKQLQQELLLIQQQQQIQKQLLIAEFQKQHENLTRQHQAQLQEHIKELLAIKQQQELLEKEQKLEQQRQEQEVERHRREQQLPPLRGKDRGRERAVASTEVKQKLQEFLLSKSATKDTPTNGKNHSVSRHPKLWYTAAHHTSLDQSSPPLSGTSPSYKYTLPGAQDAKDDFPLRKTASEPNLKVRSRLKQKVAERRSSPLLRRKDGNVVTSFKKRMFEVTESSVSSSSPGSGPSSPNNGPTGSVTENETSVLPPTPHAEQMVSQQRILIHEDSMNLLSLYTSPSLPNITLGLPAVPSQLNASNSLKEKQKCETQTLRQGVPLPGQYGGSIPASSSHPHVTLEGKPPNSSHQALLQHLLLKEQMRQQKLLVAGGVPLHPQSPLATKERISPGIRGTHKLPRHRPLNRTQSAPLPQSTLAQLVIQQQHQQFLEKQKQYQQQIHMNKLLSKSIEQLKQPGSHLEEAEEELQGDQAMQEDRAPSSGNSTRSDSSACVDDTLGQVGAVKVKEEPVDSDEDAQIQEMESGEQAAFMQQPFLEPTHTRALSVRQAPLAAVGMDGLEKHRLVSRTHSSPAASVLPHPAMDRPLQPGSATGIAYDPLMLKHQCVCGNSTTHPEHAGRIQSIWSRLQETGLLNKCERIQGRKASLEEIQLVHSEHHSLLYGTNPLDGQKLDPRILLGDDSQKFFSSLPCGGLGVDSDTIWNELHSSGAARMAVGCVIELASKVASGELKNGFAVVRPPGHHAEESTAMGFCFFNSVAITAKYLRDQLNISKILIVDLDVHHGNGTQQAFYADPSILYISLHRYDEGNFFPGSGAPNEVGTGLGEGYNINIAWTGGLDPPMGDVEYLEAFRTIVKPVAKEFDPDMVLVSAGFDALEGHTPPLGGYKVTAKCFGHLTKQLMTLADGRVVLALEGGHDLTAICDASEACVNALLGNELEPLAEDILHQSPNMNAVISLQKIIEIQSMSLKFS

For `O=C(NO)c1ccc(CNC(=O)[C@H]2Cc3c([nH]c4ccccc34)[C@H](c3ccc(Cl)cc3)N2)cc1`, the GI50 (as a rule, the concentration giving 50% growth inhibition) in the data set on TK-10 stood at 1.51 µM; with SF-295 it was 1.81 µM; with MOLT-4, 0.563 µM; with A498, 2.06 µM; in the data set with CAKI-1 it was 2.33 µM; in the data set on SNB-75, 2.26 µM. Also, the GI50 with U-251 worked out at 1.21 µM; with KM12, 2.36 µM; in the data set with Malme-3M it was 0.41 µM; in the data set on BT-549, 4.93 µM; in the data set with SNB-19 it was 2.26 µM; in the data set with HT-29, 0.838 µM. For the same compound, in the data set with PC-3, the GI50 is 1.76 µM. Besides, the 50% inhibitory concentration (IC50) (usually the point on the concentration scale where inhibition reaches its midpoint) is 0.292 µM at Histone deacetylase 8, above 50 µM against Histone deacetylase 9, 0.0987 µM at Histone deacetylase 2 and 0.0616 µM against Histone deacetylase 1. In data set [1], the Cmax (usually the maximum level reached in the sampled fluid or tissue) was found to be 1.39 µM. The inhibition result in data set [2], in data set [5] and in [8] was “Active” each time. The half-life (as a rule, the time needed for the level to fall by half in the phase considered) in data set [3] is 3.38 h. Further, in data set [4], the clearance (in general, the volume of plasma or blood freed of the substance per unit of time) amounted to 0.264 L/h/kg. In addition, in [6], the Tmax – broadly, the time at which the peak concentration occurs – was found to be 1.54 h. Besides, the Vd in data set [7] worked out at 0.81 L/kg.
For `COc1ccc(CN2[C@@H](C(=O)NCc3ccc(C(=O)NO)cc3)Cc3c([nH]c4ccccc34)[C@@H]2C2CC2)cc1`, the GI50 is 3.17 µM with TK-10; 2.92 µM in the data set with SF-295; 1.85 µM with MOLT-4; 2.77 µM in the data set with A498; 2.4 µM in the data set on CAKI-1; 1.13 µM in the data set on SNB-75. The GI50 in the data set with U-251 was 2.66 µM; with KM12, 3.51 µM; with Malme-3M, 0.847 µM; in the data set with BT-549, 4.99 µM; in the data set with SNB-19 it was 2.89 µM; in the data set with HT-29, 4.84 µM. Further, in the data set on PC-3, the GI50 came out at 3.12 µM. This compound registered an IC50 at Histone deacetylase 1 of 0.171 µM.

The record behind these values is ChEMBL document CHEMBL5625247, “Tetrahydro-β-carboline derivatives as potent histone deacetylase 6 inhibitors with broad-spectrum antiproliferative activity” (Eur J Med Chem, 2023).
